Measured values taken from paper PMC6764291 (Frontiers in Oncology, 2019).
“Also recorded” adds a separate entry of the source. Like-named read-outs stand apart in the source and are kept apart here.

Legend:
cleaved caspase-3 [1] = test: Western Blot cleaved caspase-3 expression, UM-SCC-74B; format: cell-based, human
Procedure: (§1) Cells were irradiated using ^137Cs gamma-ray photons at a dose-rate of ~1 Gy/min (Best Theratronics Gammacell® 40Exactor, Springfield, USA).
(§2) Whole-cell lysates were prepared according to standard protocols. Protein concentrations were measured using a DeNovix DS-11 spectrophotometer (DeNovix Inc., Wilmington, DE, USA). Samples were separated on 4–12% Bis-Tris SDS gels and transferred to a nitrocellulose membrane (ThermoFisher Scientific, Uppsala, Sweden) by wet-transfer blotting. The membrane was blocked for 1 h in PBS with 5% BSA before incubation with primary antibodies targeting p53, caspase-3, NaK-ATPase and GLB1 (DO-1 (ab1101), ab13847, ab76020 and ab128993, AbCam, Cambridge, UK) and β-actin (A5441, Sigma Aldrich Sweden, Stockholm, Sweden) at 4°C overnight. After washing with PBS with 1% Tween-20, the membrane was incubated with respective and species-specific Horse Radish Peroxidase-labeled secondary antibody (ThermoFisher Scientific, Waltham, MA, USA) and stained with electro-chemiluminescent solution (Immobilon, Millipore, Bedford, USA).

GLB-1 [2] = test: Western Blot GLB-1 expression, HCT116; format: cell-based; conditions: 2 Gy + 20 μM PM2, n ≥ 3
Procedure: as §1, §2

Noxa = test: Flow cytometry Noxa expression, UM-SCC-74B; format: cell-based, human; conditions: 20 μM PM2, 72 h
Procedure: as §1
(§3) Cells were collected and fixed in 70% ethanol at 6, 12, 24, 48, 72, and 96 h post-irradiation and stored at −20°C. For cell cycle analyses, 6, 12, 24, and 48 h samples were rehydrated and washed twice with PBS and stained with DAPI (Sigma Aldrich Sweden, Stockholm, Sweden) using 1 μg/ml for 30 min. 24, 48, 72, and 96 h samples were stained with caspase-3 and Noxa (ab13847 (1:500) and ab13654 (1:1,000), AbCam, Cambridge, UK) overnight at 4°C, followed by incubation with fluorescent labeled secondary antibodies for 90 min (ab 1:400) at room temperature. Analyses were performed using a BD LSR Fortessa flow cytometer (Becton Dickinson Biosciences, San Jose, USA). Data analyses for cleaved caspase-3 and Noxa were performed with BD FACSDiVa (Becton Dickinson Biosciences, San Jose, USA), while cell cycle analyses of exclusively viable cells were performed using FlowJo (Becton, Dickinson Biosciences, San Jose, USA). Coefficient of variation (CV) values, were below seven for all samples.

cleaved caspase-3 [3] = test: Flow cytometry cleaved caspase-3, UM-SCC-74B; format: cell-based, human
Procedure: as §1, §3

A431 = test: XTT cell viability, A431; format: cell-based; conditions: n ≥ 4
Procedure: The human squamous cell carcinoma cell lines UM-SCC-74A and UM-SCC-74B were kindly provided by Professor TE Carey (University of Michigan, USA) and cultured in Dulbecco's Modified Eagle Medium (DMEM) with 10% fetal bovine serum, 1% L-glutamine, 1% antibiotics (100 IU penicillin and 100 μg/ml streptomycin) as well as 1% non-essential amino acids (all from Biochrom Kg, Berlin, Germany). UT-SCC-45 (kindly provided by Dr. R. Grenman, Turku University Central Hospital, Finland) was cultured in DMEM with the abovementioned additives. HCT116 and A431 were purchased from American Type Culture Collection (Manassas, VA, USA). […]
Five-hundred to ten thousands cells were seeded in flat-bottomed 96-well plates and incubated for 48 h prior to irradiation with 2Gy. […] Plates were incubated for up to 6 h at 37° and absorbance was measured by using a BioMark Microplate Reader (Bio-Rad Laboratories AB, Solna, Sweden).
GraphPad Prism version 6.07 (GraphPad Software, San Diego, USA) was used for data processing and analysis. p-values were determined using unpaired student's t-test for comparison between two groups or one-way ANOVA followed by Tukey's multiple comparisons test, with p < 0.05 (^*), p < 0.01 (^**), p < 0.001 (^***), and p < 0.0001 (^****). […]

HCT116 [4] = test: XTT cell viability, HCT116; format: cell-based
Procedure: (§4) The human squamous cell carcinoma cell lines UM-SCC-74A and UM-SCC-74B were kindly provided by Professor TE Carey (University of Michigan, USA) and cultured in Dulbecco's Modified Eagle Medium (DMEM) with 10% fetal bovine serum, 1% L-glutamine, 1% antibiotics (100 IU penicillin and 100 μg/ml streptomycin) as well as 1% non-essential amino acids (all from Biochrom Kg, Berlin, Germany). UT-SCC-45 (kindly provided by Dr. R. Grenman, Turku University Central Hospital, Finland) was cultured in DMEM with the abovementioned additives. HCT116 and A431 were purchased from American Type Culture Collection (Manassas, VA, USA). HCT116 was cultured in McCoy's modified Eagle medium with 10% fetal bovine serum, 1% L-glutamine and 1% antibiotics (100 IU penicillin and 100 μg/ml streptomycin) and A431 was cultured in Ham's F10 with the same additives. H314 was purchased from the European Collection of Authenticated Cell Cultures (Salisbury, UK) in DMEM/Ham's F12 (1:1) with the abovementioned additives. Cells were incubated at 37°C with 5% CO2, and cultivated for no longer than 2 months at a time.
as §1
(§5) Five-hundred to ten thousands cells were seeded in flat-bottomed 96-well plates and incubated for 48 h prior to irradiation with 2Gy. […] Cells were incubated at 37° for 4–5 days until 80–90% confluence had been obtained. A mix of XTT Activation Reagent and XTT Reagent was added according to the American Type Culture Collection 30–1011 K protocol (Manassas, VA, USA). Plates were incubated for up to 6 h at 37° and absorbance was measured by using a BioMark Microplate Reader (Bio-Rad Laboratories AB, Solna, Sweden).
(§6) GraphPad Prism version 6.07 (GraphPad Software, San Diego, USA) was used for data processing and analysis. p-values were determined using unpaired student's t-test for comparison between two groups or one-way ANOVA followed by Tukey's multiple comparisons test, with p < 0.05 (^*), p < 0.01 (^**), p < 0.001 (^***), and p < 0.0001 (^****). For XTT assays cell viability was normalized for irradiated and unirradiated samples separately. […] CDI ≤ 0.7 equaled significant synergistic effect, CDI ≤ 1 equaled additive effect and CDI > 1 equaled antagonistic effect ([29]).

UM-SCC-74A = test: XTT cell viability, UM-SCC-74A; format: cell-based, human
Procedure: as §4, §1, §5, §6

HCT116 [5] = test: Cell cycle analysis by flow cytometry, HCT116; format: cell-based; conditions: for G2/M-phase / S-phase: viable cells, DAPI
Procedure: as §1, §3

GLB-1 [6] = test: Western Blot GLB-1 expression, UM-SCC-74B; format: cell-based, human; conditions: 2 Gy + 20 μM PM2, 72 h, n ≥ 3
Procedure: as §1, §2

[7] = 20 μM PM2, 0 Gy, compared to untreated controls
[8] = Combination 2 Gy + 20 μM PM2, 6 h
[9] = Combination 2 Gy + 20 μM PM2, 12 h
[10] = Combination 2 Gy + 20 μM PM2, 24 h
[11] = Combination 2 Gy + 20 μM PM2, 48 h

CC(=O)N[C@H](C(=O)N[C@@H](CO)C(=O)N[C@@H](Cc1ccccc1)C(=O)N[C@]1(C)CCCCCCC=CCCC[C@@](C)(C(N)=O)NC(=O)[C@H](CC(C)C)NC(=O)[C@H](CC(C)C)NC(=O)[C@H](C)NC(=O)[C@H](Cc2c[nH]c3ccccc23)NC(=O)[C@H](Cc2ccc(O)cc2)NC(=O)[C@H](CCC(=O)O)NC1=O)[C@@H](C)O [PM2]
increase in cleaved caspase-3 levels (cleaved caspase-3 [1]; 20 μM PM2, 72 h, normalized to controls, n ≥ 3): Four-fold | cleaved caspase-3 expression (cleaved caspase-3 [1]; 20 μM PM2-treated samples, n ≥ 3): increase in expression | cleaved caspase-3 expression, combination (cleaved caspase-3 [1]; 2 Gy + 20 μM PM2, n ≥ 3): predominant | GLB-1 expression versus irradiated and control, combination (GLB-1 [2]): less pronounced and failed to reach significance | Noxa expression (Noxa): distinct increases | cleaved caspase-3 expression (cleaved caspase-3 [3]; 20 μM PM2, 72 h): distinct increases | cleaved caspase-3 increase compared to controls (cleaved caspase-3 [3]; 20 μM PM2-treated, peak at 72 h, n ≥ 3): 40 fold | cleaved caspase-3, combination versus PM2 alone (cleaved caspase-3 [3]; 2 Gy + 20 μM PM2, p ≤ 0.05): significantly higher expression levels | PM2 effect (A431; 0–20 μM PM2, 0 Gy, single base p53 mutation, HPV negative): did not affect and unaffected and No | Significant effect of combination (A431; PM2 with 2 Gy EBRT): significantly decreased the viability and significant decrease in viability and Yes | PM2 effect (HCT116 [4]; 0–20 μM PM2, 0 Gy, wild-type p53, HPV negative, n = 6): decreased significantly the viability and Yes | average viability reduction (HCT116 [4]; [7]): 75% | IC50 (HCT116 [4]; PM2 added 3 h after 2 Gy EBRT, normalized to 2 Gy, 0 μM PM2, n = 6, read-out: IC50 of the combination treatment): 12 µM | lowest PM2 dose with significant decrease of viability (HCT116 [4]; PM2 alone): ~ 10 μM | IC50 (HCT116 [4]; PM2 alone (0 Gy), 4–5 days, n = 6, read-out: IC50 (cell viability)): 14 µM | Significant effect of combination (HCT116 [4]; PM2 with 2 Gy EBRT, n = 6): Yes | PM2 effect (UM-SCC-74A; 0–20 μM PM2, 0 Gy, wild-type p53, HPV negative, n ≥ 4): decreased significantly the viability and Yes | average viability reduction (UM-SCC-74A; [7]): 73% | lowest PM2 dose with significant decrease of viability (UM-SCC-74A; PM2 alone): ~ 10 μM | IC50 (UM-SCC-74A; PM2 alone (0 Gy), 4–5 days): 16 µM | Significant effect of combination (UM-SCC-74A; PM2 with 2 Gy EBRT, n ≥ 4): Yes | G2/M-phase (HCT116 [5]; 20 μM PM2 alone, 6 h): 19.4% | S-phase (HCT116 [5]; 20 μM PM2 alone, 6 h): 55.8% | G2/M-phase (HCT116 [5]; 20 μM PM2 alone, 12 h): 30.1% | S-phase (HCT116 [5]; 20 μM PM2 alone, 12 h): 35.1% | G2/M-phase (HCT116 [5]; 20 μM PM2 alone, 24 h): 21.1% | S-phase (HCT116 [5]; 20 μM PM2 alone, 24 h): 10.7% | G2/M-phase (HCT116 [5]; 20 μM PM2 alone, 48 h): 20.6% | S-phase (HCT116 [5]; 20 μM PM2 alone, 48 h): 23% | S-phase reduction / depletion (HCT116 [5]; 2 Gy + 20 μM PM2): S-phase reduction occurred as early as 12 h post-treatment; also recorded: S-phase depletion at 24 h post-treatment | G2/M-phase cells versus untreated controls (HCT116 [5]; 2 Gy + 20 μM PM2, throughout 48 h): More than twice as many cells | G2/M-phase (HCT116 [5]; [8]): 39.9% | S-phase (HCT116 [5]; [8]): 44.9% | G2/M-phase (HCT116 [5]; [9]): 53.8% | S-phase (HCT116 [5]; [9]): 17.3% | G2/M-phase (HCT116 [5]; [10]): 42.7% | S-phase (HCT116 [5]; [10]): 5.51% | G2/M-phase (HCT116 [5]; [11]): 29.9% | S-phase (HCT116 [5]; [11]): 17.5% | GLB-1 expression, combination versus irradiated (GLB-1 [6]): significant increase
